The source of these data is article PMC7381729, “A new class of PentixaFor- and PentixaTher-based theranostic agents with enhanced CXCR4-targeting efficiency” (Theranostics, 2020).

Like-named read-outs stand apart in the source and are kept apart here. Where a SMILES comes first, the peptide text is derived from it. Side-chain parts run from the residue outwards. [ ]: non-standard residue; d: D form. The star is where a group is joined. DOTA = O=C(O)CN1CCN(CC(=O)O)CCN(CC(=O)*)CCN(CC(=O)O)CC1; 2Nal = N[C@@H](Cc1ccc2ccccc2c1)C(=O)O; dNMeOrn = CN[C@H](CCCN)C(=O)O; 4Amb = NCc1ccc(C(=O)O)cc1; 4Abz = Nc1ccc(C(=O)O)cc1

For orientation: IC50 means the concentration that inhibits the measured activity by half.

Series [1] concerns the target T1, murine CXCR4 (mCXCR4) (Mus musculus, UniProt P70658).
T1 construct: mCXCR4-expressing Eµ-Myc1080 mouse B-cell lymphoma cells; endogenous in cells; host or cells: Eµ-Myc1080 mouse B-cell lymphoma cells (whole cells)
Nature of the series: Competition binding to mCXCR4, Eµ-myc 1080 mouse lymphoma cells, [125I]CPCR4.3 as radioligand. The conditions noted are these: Eµ-myc 1080 mouse lymphoma cells 200.000 cells/sample, means ± SD of min. three separate experiments. The method, then:
Experiments were performed in triplicate with n=3 per concentration in each experiment. IC50 values were calculated using GraphPad Prism 6.01 (Graph Pad Software, San Diego, USA).

Series [2] can be described thus: Small animal PET imaging in Daudi xenograft bearing mice. Format: in vivo. The conditions noted are these: CB17 SCID, mouse, iv, total radioactivity, 90 min p.i., dynamic PET, ROI analysis, n=1 per compound. The protocol:
(§1) Small aminal PET imaging studies were performed using a Siemens Inveon PET scanner. Animals were anesthetized with isoflurane and injected via the tail vein with 10 to 15 MBq (0.1 nmol) of the respective tracer. Dynamic imaging (n=1 per compound) was performed after on-bed injection for 1.5 h, and static images (n=1 per compound) were acquired at 1 h p.i. with an acquisition time of 15 min. Data analysis was performed using the Inveon Research Workplace software. Images were reconstructed using a 3D ordered-subsets expectation maximum (OSEM3D) algorithm without scanner and attenuation correction. Time-activity curves (Figure 4) were obtained by generating isocontour regions of interest (ROI) for the tumor and the heart content (as a surrogate for blood activity), as well as by defining two spherical ROIs (each 23.4 mm^3) in the thigh area (muscle) and areas of homogenous tracer uptake in the liver, followed by plotting of average activity ± SD per volume in these ROIs over time.  Figure 4 Results from small animal PET imaging using [^68Ga]PentixaFor (top row), [^68Ga]DOTA-r-a-ABA-CPCR4 (middle row) and [^68Ga]DOTA-r-a-ABA-iodoCPCR4 (bottom row) in Daudi xenograft bearing CB17 SCID mice. Images on the left (MIP) were obtained by static imaging (1h p.i., n=1), the time activity curves (TAC) on the right were acquired by dynamic PET imaging (0-90 min p.i., n=1).

In series [3] the test system is Daudi xenograft bearing CB17 SCID mice. The series is described as above. The format is in vivo. The following applies: mouse, in vivo. The method, then:
as §1

Series [4] is described as follows: In vivo metabolite analysis (radio-HPLC). Further details: species or system mouse. The conditions noted are these: CB17 SCID mice, 0.5h p.i., i.v. app. 35 MBq; radio-HPLC of extracts. The protocol:
68Ga-labeling was performed as published previously using a 68Ge/68Ga generator (iTHEMBA Labs, South Africa) and a GallElut + synthesis module (SCINTOMICS GmbH, Germany). Usually, 5 nmol of precursor peptide were used, yielding the 68Ga-labeled peptides in specific activities of 100 to 120 […]
For 177Lu-labeling, the peptides were dissolved in water to yield a 1 mM solution. Of this solution, the required volume was added to 177LuCl3 in 0.04 M HCl (ITG/ITM, Garching, Germany; activity concentration: 370 MBq/500 µl) to achieve a peptide-to -177Lu-activity ratio of 1 nmol peptide per 225 MBq 177LuCl3. To this mixture, 1 M NH4OAc was added (calculated to be 10% of total reaction volume), and the mixture was heated to 90°C for 4 0 min. […]
Human glioma U87 cells overexpressing CD4 and CXCR4 (U87CD4CXCR4) cells were kept in cultivation at least one week before starting the experiment. […] Perkin-Elmer’s LANCE cAMP assay kit (catalog #AD0262) based on time-resolved fluorescence resonance energy transfer (TR -FRET) was utilized to determine the ability of [natLu]DOTA -r -a -ABA -iodo CPCR4 and [ natLu]PentixaTher vs the reference CXCL12 to inhibit cAMP production induced by 5 µM Forskolin. […]
(15,000 g), and the supernatants were subjected to ultrafiltration. […] The blood extract was also analyzed by radio-HPLC. For all extracts the ex traction efficiency was determined in a ɣ -counter.

In series [5] the test system is Daudi (human B-cell lymphoma) xenograft bearing CB-17 SCID mice. The experiment in a line: Biodistribution in Daudi xenograft bearing mice. Format: in vivo, mouse. An outline of the steps:
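Female CB-17 SCID mice with Daudi xenografts (n=4-5) received 5-10 MBq (0.08-0.11 nmol) ^68Ga- or ^177Lu-labelled ligand i.v.; blocking by coinjected 50 µg AMD3100. Organs counted by γ-counter at 1, 6 and 48 h p.i.; %ID/g (mean ± SD).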

The nature of series [6]: Lipophilicity, modified shake-flask method. The conditions noted are these: O/PBS, radiolabeled compound, means ± SD (n=6). Format: physicochemical. The method, then:
The lipophilicity (log PO/PBS) of the ^68Ga- and ^177Lu-labeled compounds in this study was determined via a modified shake-flask method.

[7] abbreviates: 1h p.i., tracer only, i.v., γ-counter, means ± SD, n=4-5 (68Ga: n=4).

T1 sequence (P70658 whole entry): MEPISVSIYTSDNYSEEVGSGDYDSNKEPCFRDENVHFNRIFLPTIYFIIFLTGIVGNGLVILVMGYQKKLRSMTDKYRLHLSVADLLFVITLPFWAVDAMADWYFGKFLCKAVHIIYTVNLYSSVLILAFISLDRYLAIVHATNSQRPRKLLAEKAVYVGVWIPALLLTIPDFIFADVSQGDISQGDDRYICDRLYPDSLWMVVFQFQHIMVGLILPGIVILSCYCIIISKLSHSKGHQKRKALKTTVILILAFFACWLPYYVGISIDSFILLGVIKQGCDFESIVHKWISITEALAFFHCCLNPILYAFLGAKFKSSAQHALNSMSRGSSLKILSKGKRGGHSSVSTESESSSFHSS

“[^natLu]DOTA-r-G-ABA-iodoCPCR4 (head to tail) [natLu-complex of entry 12]”: in series [1], the IC50 turned out to be 37 ± 3 nM.
For the molecule `CN1C(=O)[C@@H](Cc2ccc(O)cc2)NC(=O)CNC(=O)[C@H](Cc2ccc3ccccc3c2)NC(=O)[C@H](CCCNC(=N)N)NC(=O)[C@H]1CCCNC(=O)c1ccc(CNC(=O)CN2CCN(CC(=O)O)CCN(CC(=O)O)CCN(CC(=O)O)CC2)cc1` [[^68Ga]PentixaFor, cyclo(D-Tyr^1-D-[NMe]Orn^2(AMBS-[^68Ga]DOTA)-Arg^3-Nal^4-Gly^5), metal not drawn, reference compound] (cyclo([dY][dNMeOrn]([4Amb-DOTA])R[2Nal]G)), the tissue uptake per volume at 1.5 h in series [2] (kidney, read-out: Kidney uptake in PET) came out at 2.7 ± 0.1 %ID/mL; in series [2] (liver, average ± SD per volume in ROI, read-out: Liver uptake in PET) it was 1.8 ± 0.1 %ID/mL; in series [2] (tumor (Daudi xenograft), Daudi xenograft, read-out: Tumor accumulation in PET), 14.3 ± 1.2 %ID/mL. Also, the “Time at which tumor uptake plateaus (TAC)” value in series [3] was roughly 20 min p.i.
On to `C[C@@H](NC(=O)[C@@H](CCCNC(=N)N)NC(=O)CN1CCN(CC(=O)O)CCN(CC(=O)O)CCN(CC(=O)O)CC1)C(=O)Nc1ccc(C(=O)NCCC[C@@H]2C(=O)N[C@@H](CCCNC(=N)N)C(=O)N[C@@H](Cc3ccc4ccccc4c3)C(=O)NCC(=O)N[C@H](Cc3ccc(O)cc3)C(=O)N2C)cc1` [[^177Lu]DOTA-r-a-ABA-CPCR4] [metal not drawn] (cyclo([2Nal]G[dY][dNMeOrn]([4Abz-dA-dR-DOTA])R)), for which the “Stable (intact tracer) in blood, urine and liver homogenates” value in series [4] is greater than 99%. In series [5] (setting [7]), this molecule came in with a Biodistribution adrenals of 1.16 ± 0.18 %iD/g, a Biodistribution blood of 1.50 ± 0.10 %iD/g, a Biodistribution colon of 0.78 ± 0.28 %iD/g and a Biodistribution femur of 0.86 ± 0.04 %iD/g. In series [5] (setting [7]), this molecule came in with a Biodistribution heart of 0.90 ± 0.07 %iD/g, a Biodistribution kidney of 9.74 ± 0.91 %iD/g, a Biodistribution liver of 11.9 ± 1.57 %iD/g and a Biodistribution lung of 3.53 ± 1.20 %iD/g. In series [5] (setting [7]), this molecule came in with a Biodistribution muscle of 0.28 ± 0.02 %iD/g, a Biodistribution small intestine of 1.23 ± 0.18 %iD/g, a Biodistribution spleen of 2.41 ± 0.34 %iD/g and a Biodistribution stomach of 1.72 ± 0.16 %iD/g. In series [5] (setting [7]), the “Biodistribution tumor (Daudi xenograft)” value amounted to 18.3±3.7 %iD/g. Moreover, the “Initial activity retained in the Daudi xenografts after 48h” value in series [5] (48h p.i. relative to early time point) was roughly 50%. For the same molecule, the “log PO/PBS” value in series [6] is on record as -3.0 ± 0.13.
The molecule “[^natLu]DOTA-k-G-ABA-iodoCPCR4 (head to tail) [natLu-complex of entry 10]” returned an IC50 in series [1] of 61 ± 17 nM.
